# Test results as given in patent US11045519B2, “Arginine-rich polypeptide compositions and methods of using same” (UNM Rainforest Innovations, priority 2017, dated 2021).
# Entries after “also recorded” stand apart in the source; their conditions may differ.
# How the values were obtained:
# Assay type in all cases: cell-based
# [1] = tested on: HPV16 PsVs; test: Direct pre-incubation of HPV16 PsVs with peptide, dilution below IC50, then infection of HaCaT cells; conditions: 0.3 μM, 1 h 37° C., diluted 1500-fold, HaCaT cells 24 h
# Method: FIG. 3. […] HPV16 PsVs were incubated with 0.3 μM polyR for one hour at 37° C. The virus-polyR mixture was diluted with CM to reduce the polyR concentration below the IC50 value prior to incubation with HaCaT cells for 24 hours (HPV16-polyR). The control included untreated HPV16 PsVs (HPV16) added to HaCaT cells. Infection was measured after 24-hour incubation.
# FIG. 15. Direct interaction of PrS to HPV16 PsVs. HPV16 PsVs were incubated with 1 μM PrS or HA:PrS complex for one hour at 37° C. Virus-PrS/or HA:PrS mixture was diluted with CM in order to reduce the PrS concentration below the IC50 value, and incubated with HaCaT cells for 24 hours. The control included untreated HPV16 PsVs. Infection was measured after 24 hours incubation as described in FIG. 12.
# Typically, direct interaction of cationic inhibitors with the viral capsids of non-enveloped viruses (including HPV) is sufficient for antiviral activity. To determine whether polyR inhibited HPV16 infectivity by direct interaction with viral capsids, HPV16 PsVs were incubated with […] for one hour at 37° C. The virus-polyR mixture was diluted 1500-fold to reduce the polyR concentration below the IC50 value, then incubated with HaCaT cells. The control included cells exposed to HPV PsVs that were not treated with polyR. […]
# [2] = tested on: HPV16 PsVs; test: HPV16 PsV binding to CHO mutant cells (L1 immunoblot); conditions: 3 μM, 30 min pre-treatment
# Method: FIG. 7. HPV binding and infection of CHO mutant cells in the presence of polyR. CHO mutant pgsA-745 cells (GAG deficient) and CHO mutant pgsD-677 cells (HS deficient) were grown in Ham's F12 medium supplemented with 10% fetal bovine serum and 1% Glutamax (Invitrogen, Thermo Fisher Scientific, Inc., Carlsbad, Calif.). (A) Cells were incubated with 3 μM polyR in the medium for 30 minutes before adding HPV16 PsVs and incubating at 4° C. for one hour. After extensive washing with PBS, cells were lysed and analyzed for the content of L1, as described in FIG. 4A. (B) Semi-confluent CHO-pgsA were treated with 3 μM polyR for one hour prior to adding HPV16 PsVs. Infection was scored at 24 hours post infection as described in FIG. 1. (C) Semi-confluent CHO-pgsD cells were treated with 3 μM polyR for one hour prior to adding HPV16 PsVs. Infection was scored at 24 hours post infection as described in FIG. 1.
# To test the effects of polyR on cells that differentially express heparan sulfate versus heparan sulfonated proteoglycans, like glycosaminoglycans (GAGs), genetically mutant clones of Chinese hamster ovary (CHO) cell lines were used. […] First, the effect of polyR on HPV16 PsV binding to these mutant cells was measured.
# [3] = tested on: HPV16 pseudovirions (PsVs); test: HPV16 PsV luciferase infectivity assay, HaCaT cells pretreated with peptide; conditions: 24 h
# Method: HaCaT cells were cultured in complete growing medium (CM; Dulbecco's modified Eagle's medium nutrient mixture F-12 HAM (Sigma-Aldrich, St. Louis, Mo.)) supplemented with 10% fetal bovine serum (FBS), amino acids (Sigma-Aldrich, St. Louis, Mo.), 2 mM L-glutamine, 100 U/ml penicillin and 1 μg/ml streptomycin (Sigma-Aldrich, St. Louis, Mo.), as previously described (Patterson et al., 2005. J Virol 79:6838-6847). Semi-confluent cells were pretreated for 30 minutes with arginine-rich peptides dissolved in CM (6 μM gp91dstat, gp91dstat (scramble), R9, and TAT, or 3 polyR) before the exposure to HaCaT cells and 300 vge/cell HPV16 pseudovirions (PsVs) packaging a luciferase reporter plasmid. Infectivity was scored after 24 hours of incubation at 37° C. (i.e., post infection) by Lumat LB9501 (Berthold Technologies GmbH & Co KG, Bad Wildbad, Germany) equipment, using the luciferase assay kit (Promega, Madison, Wis.) according to manufacturer's specification. Raw data were normalized to total cellular protein concentration. Graph summarizes triplicate treatments; error bars represent SEM.
# Fifty percent inhibitory concentration (IC50) of HPV16 PsV infection of HaCaT cells by the compounds. For generation of an inhibitory concentration 50 (IC50) curves, cells were pretreated with the indicated concentration of arginine-rich peptides prior to HPV16 PsV exposure. Infectivity was scored after 24 hours of incubation at 37° C. and the data from two independent duplicate experiments were pooled and analyzed using non-linear regression (curve fit) function of PRISM software (GraphPad Software, Inc., LaJolla, Calif.).
# Semi-confluent HaCaT cells maintained in CM, were pretreated for one hour with PrS dissolved in CM at the 0-5.8 μM concentrations before exposure to HPV16 PsVs (350 vge/cell). Infectivity was scored after 24 hours of incubation at 37° C. using a luminometer (Lumat LB9501, Berthold GmbH & Co., Bad Wildbad, Germany) and luciferase assay (Promega, Madison, Wis.) according to manufacturer's specification. Raw data were normalized to total cellular protein concentration.
# For generation of an inhibitory concentration 50 (IC50) curve for PrS inhibition, data from two independent duplicate experiments was pooled and analyzed using the non-linear regression (curve fit) function of PRISM (GraphPad Software, Inc., La Jolla, Calif.).
# 3 μM PrS incubated for one hour at room temperature with 2 mg/ml high or low molecular weight HA in CM, prior to the addition to HaCaT cells. 350 vge/cell HPV16 PsVs were used for infection of cells in the presence or absence of PrS or HA:PrS complex. Infection was scored after 24 hours as described in FIG. 12.
# HaCaT cells were pretreated with 6 μM concentrations of gp91dstat, gp91dstat (scramble), R9, or TAT, or 3 μM polyR. After 30 minutes of incubation at 37° C., cells were infected with HPV16 pseudovirions (PsVs) at a dose of 300 viral genome equivalents (vge)/cell, and the relative infectivity was quantified after 24 hours compared to infection in untreated cells (FIG. 1). Each treatment was performed in triplicate.
# To evaluate the anti-HPV activity of PrS, HaCaT cells, a keratinocyte-derived cell line, was used as a model for analysis of HPV infection. […]
# Infections were initiated using Luciferase-expressing HPV16 PsVs that were produced, isolated, and quantified as described previously (Surviladze et al., 2012. PLoS Pathogens 8: e1002519; Campos S K and Ozbun M A, 2009. PloS One 4:e4463). […]
substance,measurement,setting,value
poly-L-arginine [polyR],effect of pre-incubation of HPV16 PsVs on infection,[1],did not inhibit infection to a statistically significant degree
same,HPV16 PsV binding,[2]; CHO pgsA-745 cells (GAG deficient),did not prevent HPV binding; also recorded: increased binding was observed
same,HPV16 PsV binding,[2]; CHO pgsD-677 cells (HS deficient),did not prevent HPV binding
same,inhibition of HPV16 PsV infection,"[3]; 3 μM, 30 min pretreatment of HaCaT cells, 300 vge/cell",> 98%
same,IC50,"[3]; pretreatment before PsV exposure, two independent duplicate experiments, read-out: IC50 of HPV16 PsV infection of HaCaT cells",19 nM
